Assay results from article PMC6934184, “Selective DNA-PKcs inhibition extends the therapeutic index of localized radiotherapy and chemotherapy” (The Journal of Clinical Investigation, 2019).

System: skin immediately surrounding the tumor
Assay: γH2AX foci in skin surrounding subcutaneous Calu-6 tumor
Type: in vivo, mouse
Settings: 5 hours after 3.3 Gy, 30 mg/kg oral, P = 0.09
Experimental: Subcutaneous non–small cell lung cancer xenografts were generated in CD-1 nude or BALB/c nude mice using A549 and Calu-6 cells, respectively, as previously described ([53]). When tumors reached 100 mm^3, mice were randomized into 4 groups (n = 7–9 per group) to receive (a) vehicle (orally) 30 minutes before mock radiation, (b) NU5455 (30 mg/kg orally) 30 minutes before mock radiation, (c) targeted tumor radiation at a single dose of 3.3 or 10 Gy, or (d) NU5455 (30 mg/kg orally) 30 minutes before 3.3 Gy or 10 Gy targeted tumor radiation. […]
NSCLC subcutaneous xenografts were generated as previously described ( 53). […] Mouse weights and tumor volumes (1/2 x length x width x depth) were measured three times a week.
Targeted radiotherapy in subcutaneous and orthotopic NSCLC xenograft models When subcutaneous xenografts reached 100 mm3, mice were randomized into four groups (n = 7 - 11/group): (i) N-Methyl-2-pyrrolidone (NMP): 30% Encapsin : PEG400 (1:6:3 v/v/v) vehicle p.o. 30 minutes prior to mock radiation. […] The remaining mice were monitored for tumor growth until the sizes of tumo rs reached 400 mm 3 or up to 38 days after initiation of […]
Tissues were fixed in 4% paraformaldehyde (PFA) and paraffin -embedded. […] The percentage of γH2AX and 53BP1 positive nuclei in lung epithelial cells was quantified manually in normal lung samples across 5 randomly-chosen fields of view per […]

`CN(C(=O)CN1CCOCC1)c1ccc2sc3c(-c4cccc5c(=O)cc(N6CC7CCC(C6)O7)oc45)cccc3c2c1` [NU5455] was tested, and the “radiation-induced γH2AX foci, fold augmented with NU5455” value was 1.6 fold.
